Assay results taken from patent publication US9670487B2, “Cationic lipids for oligonucleotide delivery” (SIRNA THERAPEUTICS, INC., priority 2010, dated 2017).

Experiments:
[1] = tested on: mRNA transcript for the ApoB gene; assay: Rhesus monkey in vivo efficacy: serum LDL-C as surrogate marker of ApoB mRNA reduction; parameters: species or system Macaca mulatta (rhesus) monkeys; settings: RDVs containing the compound and ApoB siRNA; 1 mg/kilogram siRNA intravenous; 2-12 days post administration; FIG. 6
Description: LNPs utilizing compound 34 in the nominal compositions described above, were evaluated for in vivo efficacy in male or female Macaca mulatta (rhesus) monkeys. The siRNA targets the mRNA transcript for the ApoB gene (Accession # XM 001097404). […] The RDVs (containing siRNA) in PBS vehicle were administered by intravenous injection in the saphenous vein at an injection rate of 20 mL/minute to a dose level of 1 mg/kilogram siRNA. The injection volumes were from 1.9 to 2.1 mL/kilogram and monkeys ranged in weight from 2.5 to 4.5 kilograms. The RDV or PBS control were administered to three monkeys. At multiple days post dose, 1 mL blood samples were drawn from the femoral artery for serum chemistry analysis. Monkeys were fasted overnight prior to blood draws. As a measure of efficacy, LDL-C was monitored as a downstream surrogate marker of ApoB mRNA reduction. At 2-12 days post systemic administration of RDVs containing compound 34, serum levels of LDL-C were reduced to less than 30% of pre-dose levels (FIG. 6).

[2] = tested on: mRNA transcript for the firefly (Photinus pyralis) luciferase gene; assay: In vivo efficacy in luciferase mouse model (LNP/RDV with Luc siRNA); settings: for inhibition at 0.3 mg/kg: Mus musculus, LNPs prepared from the compound with Luc siRNA, 0.3 mg Kg^-1, tail vein, imaged 48 hours post dose, relative to pre-dose luminescence, read-out: Average % Inhibition of Bioluminescence
Description: LNPs utilizing the compounds of the instant invention, in the nominal compositions described immediately above, were evaluated for in vivo efficacy and induction of inflammatory cytokines in a luciferase mouse model. The siRNA targets the mRNA transcript for the firefly (Photinus pyralis) luciferase gene (Accession # M15077). […] The in vivo luciferase model employs a transgenic mouse in which the firefly luciferase coding sequence is present in all cells. ROSA26-LoxP-Stop-LoxP-Luc (LSL-Luc) transgenic mice licensed from the Dana Farber Cancer Institute are induced to express the Luciferase gene by first removing the LSL sequence with a recombinant Ad-Cre virus (Vector Biolabs). Due to the organo-tropic nature of the virus, expression is limited to the liver when delivered via tail vein injection. Luciferase expression levels in liver are quantitated by measuring light output, using an IVIS imager (Xenogen) following administration of the luciferin substrate (Caliper Life Sciences). Pre-dose luminescence levels are measured prior to administration of the RDVs. Luciferin in PBS (15 mg/mL) is intraperitoneally (IP) injected in a volume of 150 uL. After a four minute incubation period mice are anesthetized with isoflurane and placed in the IVIS imager. The RDVs (containing siRNA) in PBS vehicle were tail vein injected n a volume of 0.2 mL. Final dose levels ranged from 0.3 to 3 mg/kg siRNA. PBS vehicle alone was dosed as a control. Three hours post dose, mice were bled retro-orbitally to obtain plasma for cytokine analysis. Mice were imaged 48 hours post dose using the method described above. Changes in luciferin light output directly correlate with luciferase mRNA levels and represent an indirect measure of luciferase siRNA activity. In vivo efficacy results are expressed as % inhibition of luminescence relative to pre-dose luminescence levels. Plasma cytokine levels were determined using the SearchLight multiplexed cytokine chemiluminescent array (Pierce/Thermo). Systemic administration of the luciferase siRNA RDVs decreased luciferase expression in a dose dependant manner. […]

[3] = Rat in vivo tolerability: serum ALT and AST after LNP dosing; settings: Sprague-Dawley female rats; RDV with ApoB siRNA; tail vein; 24 hours after dosing; FIG. 4
Description: Six hours post dose, food is removed from the cages. Animal necropsy is performed 24 hours after LNP dosing. Rats are anesthetized under isoflurane for 5 minutes, then maintained under anesthesia by placing them in nose cones continuing the delivery of isoflurane until ex-sanguination is completed. Blood is collected from the vena cava using a 23 gauge butterfly venipuncture set and aliquoted to serum separator vacutainers for serum chemistry analysis. Punches of the excised caudate liver lobe are taken and placed in RNALater (Ambion) for mRNA analysis. Preserved liver tissue was homogenized and total RNA isolated using a Qiagen bead mill and the Qiagen miRNA-Easy RNA isolation kit following the manufacturer's instructions. Liver ApoB mRNA levels were determined by quantitative RT-PCR. Message was amplified from purified RNA utilizing a rat ApoB commercial probe set (Applied Biosystems Cat # RN01499054_ml). The PCR reaction was performed on an ABI 7500 instrument with a 96-well Fast Block. The ApoB mRNA level is normalized to the housekeeping PPIB (NM 011149) mRNA. PPIB mRNA levels were determined by RT-PCR using a commercial probe set (Applied Biosystems Cat. No. Mm00478295_ml). Results are expressed as a ratio of ApoB mRNA/PPIB mRNA. All mRNA data is expressed relative to the PBS control dose. […]

In the case of `CCC/C=C\CCCCCCCOC(CN1CCCC1)OCCCCCCCC/C=C\C/C=C\CCCCC` (centres unmarked) [Compound 34, 1-{2-[(8Z)-dodec-8-en-1-yloxy]-2-[(9Z,12Z)-octadeca-9,12-dien-1-yloxy]ethyl}pyrrolidine], the “Serum levels of LDL-C” value [1] is reported as “less than 30 % of pre-dose levels”.
Molecule `CCCCC/C=C\C/C=C\CCCCCCCCOCC(CN(C)C)OCCCCCCCCO[C@H]1CC[C@@]2(C)C(=CC[C@H]3[C@@H]4CC[C@H]([C@H](C)CCCC(C)C)[C@@]4(C)CC[C@@H]32)C1` (some centres unmarked) [Compound 4, S-Octyl CLinDMA, reference compound] has an inhibition at 0.3 mg/kg [2] of 55%.
For `CCCCC/C=C\C/C=C\CCCCCCCCOC(CN(C)C)OCCCCCCCC` (centres unmarked) [Compound 31, N,N-dimethyl-2-[(9Z,12Z)-octadeca-9,12-dien-1-yloxy]-2-(octyloxy)ethanamine], the “Tolerability (serum ALT and AST) compared with RDV containing DLinKC2DMA cationic lipid 64” value [3] was “better tolerability”.
In the case of `CCCCC/C=C\C/C=C\CCCCCCCCOC(CN(C)C)OCCCCCCCC/C=C\C/C=C\CCCCC` [Compound 2, N,N-dimethyl-2,2-bis[(9Z,12Z)-octadeca-9,12-dien-1-yloxy]ethanamine], the inhibition at 0.3 mg/kg [2] is reported as 64% and the “Efficacy compared with RDV containing octyl-CLinDMA cationic lipid, Compound 4” value ([2]; mice dosed with RDVs containing the compound and Luc siRNA, Table 1) is reported as “Greater efficacy”.
